Measured values from patent US9822179B2, “Recombinant TNF ligand family member polypeptides with antibody binding domain and uses therefor” (UNIVERSITAT STUTTGART, priority 2011, dated 2017).
Where a SMILES comes first, the peptide text is derived from it. The star is where a group is joined. Cbz = O=C(OCc1ccccc1)*; CH2F = FC*

Columns and labels:
Colo205 cells = assay: Caspase dependence of cell death in Colo205 cells, MTT; assay type: cell-based; conditions: 25 ng/ml bortezomib, caspase inhibitors 20 μM, 16 h
Method: (§1) After 16 h, cell viability was determined using MTT staining (Colo 205) or crystal violet staining (Huh-7) and data were normalized using bortezomib-treated cells as control (mean SEM, n=3). (B) 1×10^4 Colo205 cells per well were grown in 96-well plates using medium with 0.1% FCS. […] (C) 1×10^4 Huh-7 cells per well were grown in 96-well plates and treated with 20 ng/ml bortezomib or with a combination of bortezomib and 10 μM zVADfmk.

[1] = system: EGFR+ Huh-7 hepatocellular carcinoma cells; assay: EGFR-directed induction of cell death in Huh-7 cells, serial dilutions of protein, crystal violet; assay type: cell-based; conditions: 250 ng/ml bortezomib, caspase inhibitors 10 μM, 16 h
Method: as §1
After 16 h, cell viability was determined using crystal violet staining.
(§2) As a positive control, cells were killed with 0.25% Triton X-100. Cell death assays with Huh-7 and HepG2 cells were performed in the absence (FIG. 6, Jurkat cells) or presence of Bortezomib (FIG. 7, Huh-7: 250 ng/ml, FIG. 6, HepG2: 500 ng/ml, FIG. 18, Huh-7: 250 ng/ml), Selleck Chemicals, Houston, Tex.). Bortezomib was added 30 min prior incubation with the proapoptotic ligands to sensitize cells for the induction of cell death (FIGS. 6, 7). Alternatively, cells were preincubated for 30 min with the indicated concentrations of TRAIL fusion proteins followed by addition of serial dilutions of Bortezomib (FIG. 8). […] After 16 h incubation, cell viability was determined either by crystal violet staining (Huh-7, HepG2) or the MTT method (Jurkat) (Wuest et al., 2002). In the latter case a lysis buffer consisting of 15% SDS in DMF/H2O (1:1), pH 4.5 (with […]) acetic acid) was used.

Colo205 xenograft tumor = Colo205 xenograft tumor model
Method: Arrows, protein application; asterisks, bortezomib application; symbols, mean of tumor volumes 95% confidence interval (CI), n=12 tumors/treatment group.
8-week-old female NMRI nu/nu mice (Janvier) were injected s.c. with 3×10^6 Colo205 cells in 100 μl PBS at left and right dorsal sides. Treatment started 6 days after tumor cell inoculation when tumors reached about 100 mm^3. […] On day 1, 3, 5 and 7 of treatment, mice received additionally 5 μg bortezomib in 100 μl PBS i.p. three hours before protein injection. The control groups received 100 μl PBS or 5 μg bortezomib at the same time intervals. […] The Tukey's test was applied for statistics.

[2] = system: EGFR low/negative HepG2 cells; assay: Target-independent induction of cell death, HepG2, crystal violet; assay type: cell-based; conditions: comparator named in value
Method: (§3) Cell viability was determined using crystal violet staining. Results from four independent experiments are shown (mean±S.E.M.). (B) Jurkat cells (1×10^5/well) were used for a similar experiment as described in (A). Jurkat cells were not sensitized. Results from three independent experiments are shown (mean±S.E.M.). Viability of Jurkat cells was determined using the MTT assay.
as §2

[3] = system: Huh-7 hepatocellular carcinoma cells; assay: Cell death in Huh-7 cells, constant protein concentration, serial dilutions of Bortezomib; assay type: cell-based; conditions: protein concentration of 1 nM and above
Method: Results from three independent experiments are shown (mean±S.E.M.).
as §2

Jurkat cells = assay: Target-independent induction of cell death, Jurkat, MTT assay; assay type: cell-based; conditions: not sensitized; SEQ ID NO: 102 compared to KillerTRAIL
Method: as §3, §2

[4] = 8 daily i.p. injections of 0.45 nmol + bortezomib every second day

Molecule | block of TRAIL fusion protein-induced cell death by inhibitor (Colo205 cells) | block of TRAIL fusion protein-induced cell death by inhibitor [1] | also measured
CN1C(=O)C(Cc2c[nH]c3ccccc23)NC1=S (stereo not drawn) [necrostatin-1] | failure of necrostatin-1 to prevent or reduce cell death | failure of necrostatin-1 to prevent or reduce cell death | 
COC(=O)CC[C@H](NC(=O)[C@H](CC(=O)OC)NC(=O)OCc1ccccc1)C(=O)N[C@H](C(=O)N[C@@H](CC(=O)OC)C(=O)CF)C(C)C [zDEVDfmk] | nearly complete block of cell death | nearly complete block of cell death | 
COC(=O)C[C@H](NC(=O)[C@H](C)NC(=O)[C@@H](NC(=O)OCc1ccccc1)C(C)C)C(=O)CF [zVADfmk] (Cbz-Val-Ala-Asp(OMe)-CH2F) | nearly complete block of cell death | nearly complete block of cell death | 
CC(C)C[C@H](NC(=O)[C@H](Cc1ccccc1)NC(=O)c1cnccn1)B(O)O [Bortezomib] |  |  | effect on tumor growth (Colo205 xenograft tumor; bortezomib by itself, 5 μg i.p. on day 1, 3, 5 and 7): did not interfere with progressive tumor growth
KillerTRAIL: commercially available highly active TRAIL preparation (Enzo Lifesciences / Axxora) (protein, UniProt P50591 39-281, looked up, extracellular domain) extracellular domain: TNELKQMQDKYSKSGIACFLKEDDSYWDPNDEESMNSPCWQVKWQLRQLVRKMILRTSEETISTVQEKQQNISPLVRERGPQRVAAHITGTRGRSNTLSSPNSKNEKALGRKINSWESSRSGHSFLSNLHLRNGELVIHEKGFYYIYSQTYFRFQEEIKENTKNDKQMVQYIYKYTSYPDPILLMKSARNSCWSKDAEYGLYSIYQGGIFELKENDRIFVSVTNEHLIDMDHEASFFGAFLVG |  |  | bioactivity on target negative cells, comparison in words [2]: comparable with the activity of SEQ ID NO: 96
SEQ ID NO: 104: single chain TRAIL, three copies of TRAIL 95-281 linked by (GGGS)2 linkers, N-terminal FLAG tag, no component B (protein, scTRAIL fusion protein, single chain TRAIL, three copies of TRAIL 95-281 linked by (GGGS)2 linkers, N-terminal FLAG tag, no component B) TSEETISTVQEKQQNISPLVRERGPQRVAAHITGTRGRSNTLSSPNSKNEKALGRKINSWESSRSGHSFLSNLHLRNGELVIHEKGFYYIYSQTYFRFQEEIKENTKNDKQMVQYIYKYTSYPDPILLMKSARNSCWSKDAEYGLYSIYQGGIFELKENDRIFVSVTNEHLIDMDHEASFFGAFLVGGGGSGGGSTSEETISTVQEKQQNISPLVRERGPQRVAAHITGTRGRSNTLSSPNSKNEKALGRKINSWESSRSGHSFLSNLHLRNGELVIHEKGFYYIYSQTYFRFQEEIKENTKNDKQMVQYIYKYTSYPDPILLMKSARNSCWSKDAEYGLYSIYQGGIFELKENDRIFVSVTNEHLIDMDHEASFFGAFLVGGGGSGGGSTSEETISTVQEKQQNISPLVRERGPQRVAAHITGTRGRSNTLSSPNSKNEKALGRKINSWESSRSGHSFLSNLHLRNGELVIHEKGFYYIYSQTYFRFQEEIKENTKNDKQMVQYIYKYTSYPDPILLMKSARNSCWSKDAEYGLYSIYQGGIFELKENDRIFVSVTNEHLIDMDHEASFFGAFLVG |  |  | induction of apoptosis when sensitized with Bortezomib [3]: nearly equally efficient in induction of complete apoptosis; apoptosis-inducing activity on Jurkat cells (Jurkat cells): no reactivity; effect on tumor growth (Colo205 xenograft tumor; [4]): delayed tumor growth; regression of tumors (Colo205 xenograft tumor; [4]): did not induce regression of tumors
